Test results from BindingDB's records for patent US20250026766 (Beigene, 2025).

Molecular target: T1, DNA polymerase theta [1-894] (UniProt O75417)
T1 construct: 1-894
Experiment: Biochemical Pol Theta (1-894) ATPase IC50 Assay
Procedure: The inhibition activities testing for the compound disclosed herein were carried out at room temperature in assay buffer containing 40 mM Tris pH 7.5, 20 mM MgCl2, 1 mM DTT, 0.01% BSA and 0.05% Tween-20. […] After 1 hour reaction, 5 μL ADP-Glo reagent (Promga V9102) was added and incubated for 40 minutes. 10 μL Kinase Detection reagent was added and incubated for 40 minutes. Luminescence was measured on a microplate reader (PHERAstar FSX, BMG labtech). The IC50 values were calculated based on inhibition of enzyme activity in the presence of increasing concentrations of compounds.

T1 sequence (O75417 1-894): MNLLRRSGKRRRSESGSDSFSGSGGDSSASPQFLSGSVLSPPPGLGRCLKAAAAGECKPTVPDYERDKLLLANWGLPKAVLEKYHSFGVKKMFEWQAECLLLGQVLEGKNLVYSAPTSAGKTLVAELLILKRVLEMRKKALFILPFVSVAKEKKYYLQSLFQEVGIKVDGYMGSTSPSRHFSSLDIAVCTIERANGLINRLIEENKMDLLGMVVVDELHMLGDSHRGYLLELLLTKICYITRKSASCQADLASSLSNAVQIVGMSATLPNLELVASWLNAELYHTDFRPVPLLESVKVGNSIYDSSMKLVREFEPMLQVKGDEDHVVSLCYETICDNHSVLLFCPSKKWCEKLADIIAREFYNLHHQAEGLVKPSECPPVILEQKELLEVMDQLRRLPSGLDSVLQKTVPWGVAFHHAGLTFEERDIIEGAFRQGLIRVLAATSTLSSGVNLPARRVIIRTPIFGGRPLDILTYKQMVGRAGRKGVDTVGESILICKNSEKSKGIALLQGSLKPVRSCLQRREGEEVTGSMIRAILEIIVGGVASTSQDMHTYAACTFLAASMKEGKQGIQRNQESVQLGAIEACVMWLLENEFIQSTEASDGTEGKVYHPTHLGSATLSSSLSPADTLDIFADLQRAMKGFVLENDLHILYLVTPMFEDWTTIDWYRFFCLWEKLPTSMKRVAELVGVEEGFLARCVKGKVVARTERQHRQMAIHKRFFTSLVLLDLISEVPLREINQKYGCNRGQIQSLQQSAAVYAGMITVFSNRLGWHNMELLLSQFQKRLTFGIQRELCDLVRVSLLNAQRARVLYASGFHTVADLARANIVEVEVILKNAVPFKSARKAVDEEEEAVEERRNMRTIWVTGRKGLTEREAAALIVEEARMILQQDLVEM

| IC50 | Compound |
| --- | --- |
| 22 nM | COc1ccccc1-c1cnncc1C(=O)Nc1nc2ccc(-c3ccc(Cl)cc3OC(C)C)nc2s1 [US20250026766, Example 143] |
| 1560 nM | Cc1ccc(-c2ccc3nc(NC(=O)c4ccc(C#N)nc4N4CCOCC4)sc3n2)cc1 [US20250026766, Example 4] |
